Laboratory results from paper PMC10897015, “Investigation of anti-nociceptive, anti-inflammatory potential and ADMET studies of pure compounds isolated from Isodon rugosus Wall. ex Benth” (Frontiers in Pharmacology, 2024).
Where “and” joins values, the source holds several entries; their conditions need not be identical. Identical values can stand only once.

Assays:
Swiss albino mice [1] = test: Acetic acid-induced writhing test; assay type: in vivo; settings: for Writhes, individual values: single animals, listed as Comp 1; for % analgesic activity (writhing inhibition) / Mean writhes: oral
Method: An anti-nociceptive assessment was performed on Swiss albino mice of both sexes, sourced from the National Institute of Health, Islamabad, Pakistan. […] Mice of either sex were divided into different groups, with five mice in each group. The test samples were carefully administered orally, with doses of 250, 500, 1000, and 2000 mg/kg.
I. rugosus was evaluated for its analgesic potential through an acetic acid-induced writhing test. Oral administration of the test samples was carried out using specified doses. After 30 min of interval, 10 ml/kg of acetic acid (0.6%) was injected into the mice. Group I served as the control and received 0.5% Tween-80 (3 ml/kg), group II received diclofenac sodium (10 mg/kg), and groups III and IV received test compounds. The count of writhes was recorded between 5 and 30 min, following the i/p injection of acetic acid ([Franzotti et al., 2000]).

5-LOX = target: T1, 5-LOX (Glycine max, UniProt P08170); test: Lipoxygenase (5-LOX) inhibitory activity; assay type: biochemical
T1 sequence (P08170 1-839): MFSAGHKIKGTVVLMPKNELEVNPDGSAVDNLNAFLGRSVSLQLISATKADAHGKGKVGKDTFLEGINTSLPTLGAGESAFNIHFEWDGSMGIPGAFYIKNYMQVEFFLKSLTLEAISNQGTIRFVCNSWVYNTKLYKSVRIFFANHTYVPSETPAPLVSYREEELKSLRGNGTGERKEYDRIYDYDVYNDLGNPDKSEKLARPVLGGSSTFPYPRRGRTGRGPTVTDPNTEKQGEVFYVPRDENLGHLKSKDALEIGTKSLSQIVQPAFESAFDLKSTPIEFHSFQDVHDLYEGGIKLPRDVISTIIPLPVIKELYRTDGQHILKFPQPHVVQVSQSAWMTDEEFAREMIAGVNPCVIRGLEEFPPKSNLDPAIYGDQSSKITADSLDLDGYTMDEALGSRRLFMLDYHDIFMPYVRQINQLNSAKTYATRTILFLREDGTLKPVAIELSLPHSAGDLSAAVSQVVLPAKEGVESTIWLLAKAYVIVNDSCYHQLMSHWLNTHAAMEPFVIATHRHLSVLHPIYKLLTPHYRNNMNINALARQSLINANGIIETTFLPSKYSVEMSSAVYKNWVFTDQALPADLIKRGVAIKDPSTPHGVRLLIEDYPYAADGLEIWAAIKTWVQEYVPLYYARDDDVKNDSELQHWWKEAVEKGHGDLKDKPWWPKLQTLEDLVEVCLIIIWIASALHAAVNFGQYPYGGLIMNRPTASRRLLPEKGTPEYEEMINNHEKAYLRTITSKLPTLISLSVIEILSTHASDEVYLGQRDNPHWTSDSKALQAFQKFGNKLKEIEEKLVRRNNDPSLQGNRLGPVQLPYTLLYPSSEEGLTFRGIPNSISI
Method: The enzyme solution with a concentration of 10,000 U/ml was prepared. […] A solution (80 mM) of linoleic acid (substrate) was made. Likewise, a 50 mM phosphate buffer solution with a pH of 6.3 was prepared. The substrate, enzyme, and buffer were combined in equal proportions, each in a 2 ml volume. […] The inhibition percentage was determined by comparing the absorbance of the test samples with that of the positive control.

Swiss albino mice [2] = test: Hot plate test, involvement of adrenergic receptors; assay type: in vivo; settings: single animals
Method: The analgesic effects of the isolated compounds were measured using the hot plate method at a monitored temperature of 55 ± 0.2°C. The Swiss albino mice were positioned on the heated surface of the hot plate, and the period from placement to the onset of licking their hind paws or starting jump movements was noted as the response latency (thermal reactions). The test compounds were injected intraperitoneally. […] The animal models were checked for thermal reactions at various time intervals after sample administration.
The outcomes of the positive control and tested compounds were compared in animals pretreated with yohimbine. […] Additionally, clonidine at a dose of 3 μg/kg was intravenously administered. The animals were then subjected to the hot plate method, as reported before.

mice = test: Carrageenan-induced paw edema; assay type: in vivo; settings: for % edema volume inhibition (mean): aspirin 10 mg/kg; for Paw edema percent inhibition, individual values / Paw edema, individual values: single animals
Method: The animals under study were divided into different groups. Prior to the experiment, the animals had only access to water. […] Additionally, the isolated compounds being tested were given 30 min before injecting 0.05 ml of 1% carrageenan into the sub-plantar region of the paw. To measure the volume changes in the paw, a digital plethysmometer was employed. Readings were taken before and after the carrageenan injection at hourly intervals over a total period of 5 h.

Swiss albino mice [3] = test: Hot plate test with opioid receptor involvement; assay type: in vivo; settings: for Reaction time on hot plate, individual values: single animals; for Reaction time on the hot plate: compounds 50 mg/kg, Mor 5 mg/kg, Nal 1 mg/kg

With O=C(O)C=Cc1ccc(O)c(O)c1 [Compound 1, 3,4-dihydroxy-cinnamic acid] the “Writhes, individual values” (Swiss albino mice [1]; 10mg) was 60 and 58.9 and 55.1, the “Writhes, individual values” (Swiss albino mice [1]; 20mg) was 50.1 and 48.2 and 49.71 and the “Writhes, individual values” (Swiss albino mice [1]; 25mg) was 45.64 and 46.56 and 47.8. For the same compound, the “Writhes, individual values” (Swiss albino mice [1]; 50mg) was 22.1 and 23.29 and 24.51, the “% analgesic activity (writhing inhibition)” value (Swiss albino mice [1]; dose 10 mg/kg) was 05.10% and 05.10^ns % and the “% analgesic activity (writhing inhibition)” value (Swiss albino mice [1]; dose 20 mg/kg) was 19.88% and 19.88^ns %. The Mean writhes (Swiss albino mice [1]; dose 20 mg/kg) was 49.33 ± 0.87, the Mean writhes (Swiss albino mice [1]; dose 20 mg/kg, listed as Comp 1, 20 mg/kg) was 49.3367 and the “% analgesic activity (writhing inhibition)” value (Swiss albino mice [1]; dose 25 mg/kg) was 24.78%. For the same compound, the Mean writhes (Swiss albino mice [1]; dose 25 mg/kg) was 46.67 ± 0.87, the Mean writhes (Swiss albino mice [1]; dose 25 mg/kg, listed as Comp 1, 25 mg/kg) was 46.6667 and the “% analgesic activity (writhing inhibition)” value (Swiss albino mice [1]; dose 50 mg/kg) was 62% and 61.90%. The Mean writhes (Swiss albino mice [1]; dose 50 mg/kg) was 23.30 ± 0.62, the Mean writhes (Swiss albino mice [1]; dose 50 mg/kg, listed as Comp 1, 50 mg/kg) was 23.3 and the inhibition at 62.5 µg/mL (5-LOX; read-out: % inhibition 5-LOX (mean ± SEM), 62.5 µg/ml) was 59.4 ± 0.65%. It also gave an inhibition at 250 µg/mL (5-LOX; read-out: % inhibition 5-LOX (mean ± SEM), 250 µg/ml) of 66.9 ± 1.04%, an inhibition at 500 µg/mL (5-LOX; read-out: % inhibition 5-LOX (mean ± SEM), 500 µg/ml) of 71.8 ± 0.55% and an inhibition at 1000 µg/mL (5-LOX; read-out: % inhibition 5-LOX (mean ± SEM), 1000 µg/ml) of 77 ± 1.49%. For the same compound, the “Hot plate analysis (adrenergic), individual values” (from here on “Hot plate analysis (adrenergic)”) (Swiss albino mice [2]; 30 Minutes) was 4.43 and 5.1 and 6.1, the “Hot plate analysis (adrenergic)” value (Swiss albino mice [2]; 45 Minutes) was 6.87 and 5.78 and 7.3 and the “Hot plate analysis (adrenergic)” value (Swiss albino mice [2]; 15 minutes) was 6.2 and 4.27 and 5.81. For the same compound, the “Hot plate analysis (adrenergic)” value (Swiss albino mice [2]; 60 minutes) was 5.1 and 5.99 and 6.59, the “Hot plate analysis (adrenergic)” value (Swiss albino mice [2]; 90 minutes) was 4.1 and 4.82 and 5.34 and the “% edema volume inhibition (mean)” value (mice; 1st hour after carrageenan) was 48.042%. For the same compound, the “% edema volume inhibition (mean)” value (mice; 2nd hour after carrageenan) was 54.02%, the “% edema volume inhibition (mean)” value (mice; 3rd hour after carrageenan) was 54.008% and the “% edema volume inhibition (mean)” value (mice; 4th hour after carrageenan) was 56.40 ± 0.42%. The “% edema volume inhibition (mean)” value (mice; 4th hour after carrageenan, listed as Comp 1) was 56.094%, the “% edema volume inhibition (mean)” value (mice; 5th hour after carrageenan) was 53.076% and the paw edema inhibition (mice; at various intervals) was > 50%. For the same compound, the “Paw edema percent inhibition, individual values” (from here on “Paw edema percent inhibition”) (mice; hour 1, listed as Comp 1) was 50.39% and 48.96% and 47.65% and 47.13% and 46.08%, the “Paw edema, individual values” (mice; hour 1, listed as Comp 1) was 0.38 and 0.391 and 0.401 and 0.405 and 0.413 and the “Paw edema percent inhibition” value (mice; hour 2, listed as Comp 1) was 53.99% and 52.64% and 55.48% and 52.1% and 55.89%. The “Paw edema, individual values” (mice; hour 2, listed as Comp 1) was 0.34 and 0.35 and 0.329 and 0.354 and 0.326, the “Paw edema percent inhibition” value (mice; hour 3, listed as Comp 1) was 54.46% and 55.39% and 53.53% and 52.73% and 53.93% and the “Paw edema, individual values” (mice; hour 3, listed as Comp 1) was 0.342 and 0.335 and 0.349 and 0.355 and 0.346. For the same compound, the “Paw edema percent inhibition” value (mice; hour 4, listed as Comp 1) was 56.75% and 58.72% and 56.09% and 54.78% and 54.13%, the “Paw edema, individual values” (mice; hour 4, listed as Comp 1) was 0.33 and 0.315 and 0.335 and 0.345 and 0.35 and the “Paw edema percent inhibition” value (mice; hour 5, listed as Comp 1) was 54.17% and 56.22% and 50.75% and 53.76% and 50.48%. The “Paw edema, individual values” (mice; hour 5, listed as Comp 1) was 0.335 and 0.32 and 0.36 and 0.338 and 0.362, the “Reaction time on hot plate, individual values” (shortened to “Reaction time on hot plate”) (Swiss albino mice [3]; at 15, listed as Comp-1) was 8.02 and 7.34 and 9.3 and the “Reaction time on hot plate” value (Swiss albino mice [3]; at 30, listed as Comp-1) was 7.19 and 7.2 and 7.18. The “Reaction time on hot plate” value (Swiss albino mice [3]; at 45, listed as Comp-1) was 6.4 and 7.3 and 6.26, the “Reaction time on hot plate” value (Swiss albino mice [3]; at 60, listed as Comp-1) was 8.1 and 9.57 and 7.46 and the “Reaction time on hot plate” value (Swiss albino mice [3]; at 90, listed as Comp-1) was 6.12 and 7.38 and 8.02. For the same compound, the “Reaction time on the hot plate” value (Swiss albino mice [3]; at 15 min) was 08.22 ± 0.07 s, the “Reaction time on the hot plate” value (Swiss albino mice [3]; at 15 min, listed as Comp-1) was 8.22 s and the “Reaction time on the hot plate” value (Swiss albino mice [3]; at 15 min, listed as compound 1) was 08.22 ± 0.07 s. The “Reaction time on the hot plate” value (Swiss albino mice [3]; at 30 min) was 07.19 ± 0.08 s, the “Reaction time on the hot plate” value (Swiss albino mice [3]; at 30 min, listed as Comp-1) was 7.19 s and the “Reaction time on the hot plate” value (Swiss albino mice [3]; at 30 min, listed as compound 1) was 07.19 ± 0.08 s. The “Reaction time on the hot plate” value (Swiss albino mice [3]; at 45 min) was 6.65 ± 0.05 s, the “Reaction time on the hot plate” value (Swiss albino mice [3]; at 45 min, listed as Comp-1) was 6.653 s and the “Reaction time on the hot plate” value (Swiss albino mice [3]; at 45 min, listed as compound 1) was 6.65 ± 0.05 s. For the same compound, the “Reaction time on the hot plate” value (Swiss albino mice [3]; at 60 min) was 8.38 ± 0.41 s, the “Reaction time on the hot plate” value (Swiss albino mice [3]; at 60 min, listed as Comp-1) was 8.377 s and the “Reaction time on the hot plate” value (Swiss albino mice [3]; at 60 min, listed as compound 1) was 8.38 ± 0.41 s. For the same compound, the “Reaction time on the hot plate” value (Swiss albino mice [3]; at 90 min) was 7.17 ± 0.57 s, the “Reaction time on the hot plate” value (Swiss albino mice [3]; at 90 min, listed as Comp-1) was 7.173 s and the “Reaction time on the hot plate” value (Swiss albino mice [3]; at 90 min, listed as compound 1) was 7.17 ± 0.57 s.
